# Reference: patent publication US8148392B2, “2-indolyl imidazo [4,5-d] phenanthroline derivatives and their use in the treatment of cancer” (Lorus Therapeutics Inc., priority 2005, dated 2012)
# Where two headings read alike, the source gives them in different places.
# Tests used:
# [1] = tested on: p21 (cyclin-dependent kinase inhibitor); test: p21 mRNA expression in HT-29 cells, real-time PCR; type: cell-based, human; details: HT-29, 1 μM, after 4 hr
# Protocol: The effect of compounds of Formula I on the expression of genes regulated by KLF4 was determined as follows. Compound 3 was tested to determine its ability to increase the expression of the cell cycle regulator p21 (cyclin-dependent kinase inhibitor) in HT-29 colon carcinoma cells. […] HT-29 cells were incubated with DMSO (vehicle control), 35 μM ZnCl2, 1 μM or 4 μM TPEN, or 0.5 μM, 1 μM, 4 μM, or 7.5 μM compound 3 for 16 hours, and mRNA was extracted from the cells. The expression of p21 mRNA was analyzed by real-time polymerase chain reaction using the comparative CT method. This assay was carried out using methods described in Example 19.
# The expressions of p21 gene and proteins were examined following treatment with compound 3. Gene expression of p21 in HT-29 cells treated with 1 μM compound 3 was determined at the indicated times as follows. Total RNA was extracted and gene expression level was determined by RT-PCR (FIG. 42A). The level of p21 protein in total cell lysate was measured by ELISA (FIG. 42B) as follows. HT-29 cells were treated with 1 μM compound 3 with and without 20 μM MG-132 (proteasome inhibitor) for indicated time.
# [2] = tested on: fourth leukemia cell line (a myeloma cell line); test: NCI DTP in vitro screen, fourth leukemia cell line; type: cell-based; details: Homo sapiens
# Protocol: For example, the following methodology, which is currently employed by the NCI, can be used to assess the GI50 of a candidate compound of Formula I in the selected cancer cell lines. Briefly, cell suspensions are diluted (5000-40,000 cells per well) and 100 μL of the diluted cell suspension is added into 96-well microtiter plates. Inoculates are allowed a preincubation period of 24 h at 37° C. for stabilization. Dilutions at twice the intended test concentration of the candidate compound are added at time zero in 100 μL aliquots to the microtiter plate wells. Test compounds are generally evaluated at five 10-fold dilutions. In routine testing, the highest well concentration is usually 10E-4 M, but this may be adjusted depending on the compound being tested. […] The cells are then assayed by using the sulforhodamine B assay (see, for example, Skehan, P., et al. (1990) JNCI, J. Natl. Cancer Inst. 82, 1107-1112; and Chen, S. F., et al. (1990) Proc. Am. Assoc. Cancer Res. 31, A2644) employing a plate reader which can be used to read the optical densities.
# (§1) Compounds 2 and 3 were evaluated for their antiproliferative effects in a panel of 60 human cancer cell lines as part of the in vitro anticancer screening services provided by the DTP (Developmental Therapeutics Program) of the US National Cancer Institute (NCI).
# KLF4 = KLF4 binding to Cyclin D1 promoter, ChIP, HT-29; type: cell-based, human; details: HT-29, ChIP
# Protocol: Based on overlapping transcription factor binding sites on Cyclin D1 gene promoter region (FIG. 33A), increased binding of a negative regulator KLF4 may replace the binding of a positive regulator Sp1. In vivo KLF4 and Sp1 binding to Cyclin D1 promoter was shown by chromatin immuno-precipitation assay (ChIP) (FIG. 33B).
# Chromatin immunoprecipitation (ChIP) was performed as follows. Cell lysates from HT-29 cells (5.5×10^5 cells in three 15 cm-culture plates in each experimental group) were prepared at the end of the indicated experiments, and ChIP assays were performed using anti-KLF4 and anti-Sp1 antibodies (Santa Cruz Biotechnology Inc.) and ChIP-ITTM kit (Active Motif, Carlsbad, Calif.) by following the manufacturer's instruction. The primers encompassing-231 to -92 region of Cyclin D1 promoter; 5′ primer (5′-CGGACTACAGGGGCAA-3′) [SEQ ID NO:1] and 3′ primer (5′-GCTCCAGGACTTTGCA-3′) [SEQ ID NO:2] were synthesized at Invitrogen.
# KLF5 = KLF5 gene expression in HT-29 cells, RT-PCR; type: cell-based, human; details: HT-29, 1 μM, after 4 hr
# Protocol: HT-29 cells were treated with 1 μM compound 3 for indicated time (FIG. 41B). Total RNA was extracted and gene expression level was determined by RT-PCR.
# [3] = tested on: human colon adenocarcinoma cells HT-29; test: Colon carcinoma HT-29 xenograft model, tumour growth; type: in vivo, CD-1 female nude mice
# Protocol: The ability of compound 3 to inhibit colon tumour growth in vivo was tested as follows. CD-1 female nude mice (7 mice per treatment group, 6-7 weeks) were injected intraperitoneally with human colon adenocarcinoma cells HT-29 cells (3×10^6 cells in 0.1 ml PBS). Treatment of the mice with vehicle or 50 mg/kg/d of compound 3 was initiated 5 days post-inoculation (size of tumours=20-40 mm^3) for 7-day cycles of five days followed by a 2 day break for 5 weeks. The size of the tumours was measured over the course of the experiment using calipers, and the weight of the tumours was measured after the animals were sacrificed.
# The ability of compounds 3, 5, and 7 to inhibit colon carcinoma cell growth in vivo was tested in the mouse xenograft model as described in Example 26. […]
# The tumor regression efficacy of compound 3 was assessed in compound 3-treated HT-29-transplanted athymic mice (FIG. 54A), and correlated with gene expressions of MTF-1, KLF4 and Cyclin D1 in HT-29 xenograft tissues (FIG. 54B). […] The tumor size was measured during the course of treatment using calipers (FIG. 54A). […] The tumor tissues were excised, frozen immediately and stored at −80° C. until RNA extraction and gene expression was analyzed by RT-PCR (FIG. 54B). […]
# [4] = tested on: panel of 60 human cancer cell lines; test: NCI DTP in vitro anticancer screen, panel of 60 human cancer cell lines; type: cell-based
# Protocol: For example, the following methodology, which is currently employed by the NCI, can be used to assess the GI50 of a candidate compound of Formula I in the selected cancer cell lines. Briefly, cell suspensions are diluted (5000-40,000 cells per well) and 100 μL of the diluted cell suspension is added into 96-well microtiter plates. Inoculates are allowed a preincubation period of 24 h at 37° C. for stabilization. Dilutions at twice the intended test concentration of the candidate compound are added at time zero in 100 μL aliquots to the microtiter plate wells. Test compounds are generally evaluated at five 10-fold dilutions. In routine testing, the highest well concentration is usually 10E-4 M, but this may be adjusted depending on the compound being tested. The cells are incubated with the test compound for 48 h in 5% CO2 atmosphere and 100% humidity. The cells are then assayed by using the sulforhodamine B assay (see, for example, Skehan, P., et al. (1990) JNCI, J. Natl. Cancer Inst. 82, 1107-1112; and Chen, S. F., et al. (1990) Proc. Am. Assoc. Cancer Res. 31, A2644) employing a plate reader which can be used to read the optical densities.
# as §1
# Analysis of the effects of compounds of Formula I on in vitro and in vivo cell growth inhibition were performed utilizing the methods as described in the preceding Examples. As shown in Example 12, cell growth inhibition by the parental compound 3 was screened by National Cancer Institute 60-cell line assay and leukemia, non-small cell cancer, colon cancer, renal cancer and prostate cancer panels were especially sensitive to compound 3.
compound,measurement,setting,value
Cc1[nH]c2ccccc2c1-c1nc2c3cccnc3c3ncccc3c2[nH]1 [Compound 3],"p21 gene expression, change",[1],Increased gene expression of p21
same,GI50,[2],2880 nM
same,KLF4 binding to Cyclin D1 promoter,KLF4,Increased KLF4
same,KLF5 gene expression,KLF5,decrease in KLF5 gene expression
same,tumour growth (size and weight),"[3]; 50 mg/kg/d, five days on 2 off, 5 weeks",able to inhibit tumour growth
same,tumor size,"[3]; 100 mg/kg i.p., 5 days then 10 days interval, 2 cycles",Significant reduction in tumor size
same,GI50,"[4]; Homo sapiens, NCI 60-cell line assay, read-out: average GI50 of all cell lines tested",620 nM
same,GI50,"[4]; Homo sapiens, span of average values in the NCI panel (FIG. 2), read-out: GI50 average values",610 to 12300 nM
same,GI50,"[4]; average over human tumour cell lines of the NCI panel (FIG. 1), read-out: average GI50 (growth inhibition by 50%)",< 2000 nM
same,selectivity among cancer types of the NCI panel,[4]; in words,"selective inhibitor of colon, leukemia, non-small cell lung cancer, and prostate cell lines"
